Assay [1] concerns defecation number induced by restraint stress in rats. The assay can be described thus: Increase of defecation number induced by restraint stress (animal model of irritable bowel syndrome). The class given is in vivo. To be noted: rat; for Suppression of the increase of defecation number induced by the restraint (in words): over the doses of Table 3; for Suppressive action on stress-induced defecation at a high dose (in words): high dose (amitriptyline 100 mg/kg, diazepam 30 mg/kg); for Effect on the defecation-suppressing action of the medicament of the present invention (combination of drugs): other drug given 1 hour, medicament 30 minutes before the restraint, FIG. 1. As for the experimental part: Increase of defecation number induced by restraint stress has widely been used as a pathological model of irritable bowel syndrome (Miyata et al., J. Pharmacol. Exp. Ther., 261, pp.297-303, 1992). Therefore, pathological model animals of irritable bowel syndrome were prepared according to the method of Williams et al. (Williams et al., Gastroenterology, 94, pp.611-621, 1988) and used for evaluation of the effectiveness of the medicament of the present invention. The medicament of the present invention was administered to the rats, and after 1 hour, their forelegs were fixed on their trunks with adhesive tapes under ether anesthesia (load of restraint stress). One hour after the restraint, defecation number was counted and the number was compared with that of the control group. In the experiments using a combination of drugs, the medicament of the present invention was administered to the animals 30 minutes before the restraint, and the other drug was administered 1 hour before the restraint.

Assay [2] has as its system defecation induced by forced swimming stress in rats. To be noted: rat; cited from earlier work.
Assay [3] relates to animal model. To be noted: cited from earlier work.
Assay [4] has as its system patients with irritable bowel syndrome. To be noted: double-blind test; cited from earlier work.

“Also recorded” adds a separate entry of the source. Marks after values point to notes of the source that are not given here.

Consider `CCCN(CCC)C1CCc2cccc(O)c2C1` (stereo not shown) [8-OH-DPAT, 8-hydroxy-2-(di-n-propylamino)tetralin], for which the “Suppression rate of defecation number (%)” value (shortened to “Suppression rate … (%)”) in assay [1] (intraperitoneal, 0.03 mg/kg) was 25%; in assay [1] (intraperitoneal, 0.1 mg/kg) it was 74* %; in assay [1] (intraperitoneal, 0.3 mg/kg) it was 97* %. In addition, the “Suppression of the increase of defecation number induced by the restraint (in words)” value (from here on “Suppression of the increase … (in words)”) in assay [1] was “the defecation due to the stress was suppressed”.
With `CNCCC(Oc1ccc(C(F)(F)F)cc1)c1ccccc1` (stereo not shown) [Fluoxetin], the “Suppression rate … (%)” value is on record as 24% in assay [1] (oral, 10 mg/kg); 15% in assay [1] (oral, 30 mg/kg); 26% in assay [1] (oral, 100 mg/kg).
On to `CN1C(=O)CN=C(c2ccccc2)c2cc(Cl)ccc21` [Diazepam, diazepam], for which the “Suppression rate … (%)” value in assay [1] (oral, 3 mg/kg) is listed as 26%; in assay [1] (oral, 10 mg/kg), 36%; in assay [1] (oral, 30 mg/kg), 77* %. Moreover, in assay [1] (oral), the “Suppressive action on stress-induced defecation at a high dose (in words)” value was “exhibited significant suppressive actions”. For the same compound, the “Efficacy on stress-induced defecation at a lower dose (in words)” value in assay [1] (oral) was “no efficacy”.
Consider `COc1ccccc1N1CCN(CC(C(=O)NC(C)(C)C)c2ccccc2)CC1` (stereo not shown) [WAY100135, N-tert-butyl-3-(4-(2-methoxyphenyl)piperazin-1-yl)-2-phenyl-propanamide], for which the “Effect on the defecation-suppressing action of the medicament of the present invention (combination of drugs)” value in assay [1] was “inhibited”.
With `CN(C)CCC=C1c2ccccc2CCc2ccccc21` [Amitriptyline, amitriptyline], the “Suppression rate … (%)” value in assay [1] (oral, 10 mg/kg) was 17%; in assay [1] (oral, 30 mg/kg) it was 6%; in assay [1] (oral, 100 mg/kg) it was 69* %. In assay [1] (oral), the “Suppressive action on stress-induced defecation at a high dose (in words)” value is on record as “exhibited significant suppressive actions”. Also, the “Efficacy on stress-induced defecation at a lower dose (in words)” value in assay [1] (oral) was “no efficacy”.
`O=C1CC2(CCCC2)CC(=O)N1CCCCN1CCN(c2ncccn2)CC1` [Buspirone, buspirone]: the “Suppression rate … (%)” value came out at 12% in assay [1] (oral, 10 mg/kg); 12% in assay [1] (oral, 30 mg/kg); 44% in assay [1] (oral, 100 mg/kg). The “Suppression of the increase … (in words)” value in assay [1] is “failed to exhibit significant efficacy”. Also, the “Defecation suppressing activity, forced swimming stress” value in assay [2] is given as “exhibited significant defecation suppressing activity”.
With `c1cnc(N2CCNCC2)nc1` [1-PP, 1-(2-pyrimidinyl)piperazine], in assay [1], the “Effect on the defecation-suppressing action of the medicament of the present invention (combination of drugs)” value was “inhibited; also recorded: antagonized”.
As to `c1ccc2c(c1)OC[C@H](CNCCCOc1ccc3c(c1)OCO3)O2` [Compound No. 1, 5-[3 [(2S)-(1,4-benzodioxan-2-ylmethyl)amino]propoxy]-1,3-benzo-dioxol], the “Suppression rate … (%)” value in assay [1] (oral, 0.3 mg/kg) was 29%; in assay [1] (oral, 1 mg/kg), 45* %; in assay [1] (oral, 3 mg/kg) it was 81* %. Moreover, the “Suppression of the increase … (in words)” value in assay [1] was “dose-dependently suppressed”. In addition, the Anxiolytic activity result in assay [3] is given as “anxiolytic activity of the medicament of the present invention was observed”.
Regarding `O=C1[C@@H]2[C@H]3CC[C@H](C3)[C@@H]2C(=O)N1CCCCN1CCN(c2ncccn2)CC1` [Tandospirone, tandospirone], the “Suppression rate … (%)” value in assay [1] (oral, 30 mg/kg) worked out at 8%; in assay [1] (oral, 100 mg/kg), 4%; in assay [1] (oral, 300 mg/kg) it was 44%. The “Suppression of the increase … (in words)” value in assay [1] is listed as “failed to exhibit significant efficacy”. Further, in assay [4], the “Therapeutic efficacy in irritable bowel syndrome compared with a placebo” value is given as “failed to give a significant difference”.
